In US20130324597A1, “PHARMACEUTICAL COMPOSITION COMPRISING TRANS-[…] AND ITS USE IN THE TREATMENT OF INFECTIONS” (priority 2010, published 2013):

Key:
VIH = experiment: Activity on VIH (survival of lymphoid cells T4, P24 dosage); assay type: cell-based; parameters: unit of the concentration uncertain
E. coli [1] = experiment: Treatment of infected mice; assay type: in vivo; details: E. coli challenge, 7 days observation; reference antibiotic, dose not given
Experimental: (§1) The test is performed on Balb/c mice aged 10 to 12 weeks.
(§2) They are infected by intraperitoneal injection of 4.10^7 Staphylococcus aureus, methicilline resistant, in a growing phase or with E. coli.

Enterobacteriaceae = experiment: MIC of pure components in Mueller Hinton gelose; assay type: cell-based; details: Enterobacteriaceae n = 13
Text: (§3) Following a method allowing the dissolution of the active blend in a Mueller Hinton gelose the MIC has been measured with pure components of the active blends 1 to 9.

Other Gram - rods = experiment: MIC of pure components in Mueller Hinton gelose; assay type: cell-based; details: Other Gram - rods n = 15
Text: as §3

[2] = test system: Staphylococcus And Enterococcus; experiment: MIC of pure components in Mueller Hinton gelose; assay type: cell-based; details: Staphylococcus And Enterococcus n = 14
Text: as §3

MRSA = details: bibliographic data on the main compound; cited from earlier work
Cocci G+ = experiment: Killing-curves, log reduction time; assay type: cell-based; details: at MIC × 4
Text: (§4) Results are expressed in minutes necessary to reduce bacterial counts by 1 log.

Enterobacteria = experiment: Killing-curves, log reduction time; assay type: cell-based; details: at MIC × 4
Text: as §4

Other gram− = experiment: Killing-curves, log reduction time; assay type: cell-based; details: at MIC × 4
Text: as §4

All strains (60 strains) = experiment: Killing-curves, log reduction time; assay type: cell-based; details: at MIC × 4
Text: as §4

P. aeruginosa = experiment: MIC in Mueller Hinton gelose; assay type: cell-based, Pseudomonas aeruginosa
Text: (§5) Following a method allowing the dissolution of the active blend in a Mueller Hinton gelose the following MIC has been measured with pure trans-cinnamaldehyde (CNM) and with the active blends 1 to 8 disclosed in table 1.
as §3

E. coli [3] = experiment: MIC in Mueller Hinton gelose; assay type: cell-based, Escherichia coli
Text: as §5, §3

E. faecium = experiment: MIC in Mueller Hinton gelose; assay type: cell-based, Enterococcus faecium
Text: as §5, §3

Enterococcus = experiment: MIC in Mueller Hinton gelose; assay type: cell-based, Enterococcus sp
Text: as §5, §3

A baumanii = experiment: MIC in Mueller Hinton gelose; assay type: cell-based, Acinetobacter baumanii; details: A baumanii 09010
Text: as §5, §3

all the strains = experiment: MIC of pure components, all strains of Table 9; assay type: cell-based; details: strains of Table 9, tested concentrations
Text: as §3

Pseudomonas = experiment: MIC in Mueller Hinton gelose; assay type: cell-based
Text: as §5, §3

E. aerogenes = experiment: MIC in Mueller Hinton gelose; assay type: cell-based; details: Enterobacter aerogenes 09004
Text: as §5, §3

Staphylococcus = experiment: MIC in Mueller Hinton gelose; assay type: cell-based
Text: as §5, §3

[4] = test system: Staphylococcus aureus, methicilline resistant; experiment: Treatment of infected mice; assay type: in vivo, Balb/c mice; details: MRSA challenge, 10 days observation; reference antibiotic, dose not given
Experimental: as §1, §2

[5] = concentration 0.0005 (unit uncertain)
[6] = concentration 0.005 (unit uncertain)
[7] = concentration 0.05 (unit uncertain)
[8] = concentration 0.1 (unit uncertain)
[9] = concentration 0.5 (unit uncertain)
[10] = concentration 5 (unit uncertain)

Cc1cn([C@H]2C[C@H](N=[N+]=[N-])[C@@H](CO)O2)c(=O)[nH]c1=O [AZT]
% Survival (lymphoid cells T4) (VIH; [5]): 10.0%
Dosage P24 (% inhibition vs T+ of the plate) (VIH; [5]): 39%
% Survival (lymphoid cells T4) (VIH; [6]): 7.0%
Dosage P24 (% inhibition vs T+ of the plate) (VIH; [6]): 48%
% Survival (lymphoid cells T4) (VIH; [7]): 36.0%
Dosage P24 (% inhibition vs T+ of the plate) (VIH; [7]): 80%
% Survival (lymphoid cells T4) (VIH; [8]): 86.0%
Dosage P24 (% inhibition vs T+ of the plate) (VIH; [8]): 99%
% Survival (lymphoid cells T4) (VIH; [9]): 97.8%
Dosage P24 (% inhibition vs T+ of the plate) (VIH; [9]): 100%
% Survival (lymphoid cells T4) (VIH; [10]): 108.7%
Dosage P24 (% inhibition vs T+ of the plate) (VIH; [10]): 100%

CC1(C)S[C@@H]2[C@H](NC(=O)[C@H](N)c3ccc(O)cc3)C(=O)N2[C@H]1C(=O)O [Amoxicillin]
% survival (E. coli [1]): 100%
Final score (E. coli [1]): 6
Final score, % vs placebo (E. coli [1]): 10.70%
Total health score (E. coli [1]): 678
Total health score, % vs placebo (E. coli [1]): 38.93%
Total weight (E. coli [1]): 849
Total weight, % vs placebo (E. coli [1]): 23.58%

O=C(OCc1ccccc1)c1ccccc1 [Benzyl benzoate, benzyl benzoate]
MIC Range (Enterobacteriaceae): > 10000 µg/mL
MIC Range (Other Gram - rods): > 10000 µg/mL
MIC Range [2]: > 10000 µg/mL

O=C/C=C/c1ccccc1 [CNM, trans-cinnamaldehyde]
elimination, bibliographic data (MRSA): 1.7 h
Mean Log reduction time (Cocci G+): 195 min
Mean Log reduction time (Enterobacteria): 72 min
Mean Log reduction time (Other gram−): 95 min
Mean Log reduction time (All strains (60 strains)): 111 min
MIC (P. aeruginosa; PS aeruginosa 09007): 0.063%
MIC (P. aeruginosa; PS aeruginosa ATCC): 0.031%
MIC (P. aeruginosa; Ps aeruginosa 09008): 0.016%
MIC (E. coli [3]; E. coli 8137): 0.016%
MIC (E. coli [3]; E. coli 8138): 0.016%
MIC (E. coli [3]; E. coli 8141): 0.016%
MIC (E. coli [3]; E. coli 8142): 0.016%
MIC (E. coli [3]; E. coli 8150): 0.031%
MIC (E. coli [3]; E. coli 8151): 0.031%
MIC (E. coli [3]; E. coli 8154): 0.031%
MIC (E. coli [3]; E. coli 8155): 0.031%
MIC (E. coli [3]; E. coli 8156): 0.031%
MIC (E. coli [3]; E. coli 8157): 0.031%
MIC (E. coli [3]; E. coli 09003): 0.063%
MIC (E. coli [3]; E. coli ATCC 25922): 0.015%
MIC (E. faecium; Enterococcus faecium 09001): 0.031%
MIC (E. faecium; Enterococcus faecium 09002): 0.031%
MIC (Enterococcus; Enterococcus 8152): 0.031%
MIC (Enterococcus; Enterococcus 8153): 0.031%
MIC 50 (Enterobacteriaceae): 150 µg/mL
MIC 90 (Enterobacteriaceae): 600 µg/mL
MIC 50 (Other Gram - rods): 600 µg/mL
MIC 90 (Other Gram - rods): 1250 µg/mL
MIC 50 [2]: 150 µg/mL
MIC 90 [2]: 300 µg/mL
MIC (A baumanii): 0.016%
activity / spectrum in words (all the strains): highly effective on all the strains
MIC (Pseudomonas; Pseudomonas 8127): 0.063%
MIC (Pseudomonas; Pseudomonas 8128): 0.063%
MIC (Pseudomonas; Pseudomonas 8129*): 0.063%
MIC (Pseudomonas; Pseudomonas 8130*): 0.125%
MIC (Pseudomonas; Pseudomonas 8131*): 0.125%
MIC (Pseudomonas; Pseudomonas 8132*): 0.125%
MIC (Pseudomonas; Pseudomonas 8133): 0.125%
MIC (Pseudomonas; Pseudomonas 8134): 0.016%
MIC (Pseudomonas; Pseudomonas 8135*): 0.03%
MIC (Pseudomonas; Pseudomonas 8136*): 0.016%
MIC (E. aerogenes): 0.063%
MIC (Staphylococcus; Staphylococcus 8143): 0.031%
MIC (Staphylococcus; Staphylococcus 8146): 0.031%
MIC (Staphylococcus; Staphylococcus 8147): 0.031%
MIC (Staphylococcus; Staphylococcus 8148): 0.031%
MIC (Staphylococcus; Staphylococcus 8149): 0.016%
MIC (Staphylococcus; Staphylococcus 8237): 0.008%
MIC (Staphylococcus; Staphylococcus 8238): 0.031%
MIC (Staphylococcus; Staphylococcus 8239): 0.031%
MIC (Staphylococcus; Staphylococcus 8240): 0.031%
MIC (Staphylococcus; Staphylococcus 8241): 0.031%

C=C1CC/C=C(\C)CC[C@@H]2[C@@H]1CC2(C)C [Caryophyllene, beta-caryophyllene]
MIC 50 (Enterobacteriaceae): > 10000 µg/mL
MIC 90 (Enterobacteriaceae): > 10000 µg/mL
MIC Range (Enterobacteriaceae): > 10000 µg/mL
MIC 50 (Other Gram - rods): > 10000 µg/mL
MIC 90 (Other Gram - rods): > 10000 µg/mL
MIC Range (Other Gram - rods): > 10000 µg/mL
MIC 50 [2]: > 10000 µg/mL
MIC 90 [2]: > 10000 µg/mL
activity / spectrum in words (all the strains): narrow

CC12CCC(CC1)C(C)(C)O2 [Cineole, cineole]
MIC Range (Enterobacteriaceae): > 10000 µg/mL
MIC Range (Other Gram - rods): > 10000 µg/mL
MIC Range [2]: > 10000 µg/mL

CC(=O)OCC=Cc1ccccc1 [Cinnamyl acetate, cinnamyl acetate]
MIC 50 (Enterobacteriaceae): > 10000 µg/mL
MIC 90 (Enterobacteriaceae): > 10000 µg/mL
MIC Range (Enterobacteriaceae): > 10000 µg/mL
MIC 50 (Other Gram - rods): > 10000 µg/mL
MIC 90 (Other Gram - rods): > 10000 µg/mL
MIC 50 [2]: > 10000 µg/mL
MIC 90 [2]: > 10000 µg/mL
activity / spectrum in words (all the strains): intermediate

C=CC(C)(O)CCC=C(C)C (centres unmarked) [Linalool, linalool]
MIC 50 (Enterobacteriaceae): 2500 µg/mL
MIC 90 (Enterobacteriaceae): 10000 µg/mL
MIC 50 (Other Gram - rods): > 10000 µg/mL
MIC 90 (Other Gram - rods): > 10000 µg/mL
MIC 50 [2]: 2500 µg/mL
MIC 90 [2]: 10000 µg/mL
activity / spectrum in words (all the strains): wide

COc1ccccc1/C=C/C=O [Trans-methoxycinnamaldehyde, trans-2-methoxycinnamaldehyde]
MIC Range (Enterobacteriaceae): > 10000 µg/mL
MIC Range (Other Gram - rods): > 10000 µg/mL
MIC Range [2]: > 10000 µg/mL

CN[C@H](CC(C)C)C(=O)N[C@H]1C(=O)N[C@@H](CC(N)=O)C(=O)N[C@H]2C(=O)N[C@H]3C(=O)N[C@H](C(=O)N[C@H](C(=O)O)c4cc(O)cc(O)c4-c4cc3ccc4O)[C@H](O)c3ccc(c(Cl)c3)Oc3cc2cc(c3O[C@@H]2O[C@H](CO)[C@@H](O)[C@H](O)[C@H]2O[C@H]2C[C@](C)(N)[C@H](O)[C@H](C)O2)Oc2ccc(cc2Cl)[C@H]1O [Vancomicin]
% survival [4]: 100%
Final score [4]: 10
Final score, % vs placebo [4]: 42.86%
Total weight [4]: 1110
Total weight, % vs placebo [4]: 0.63%
